Key:
Prototheca wickerhamii = assay: Compound was tested for inactivation of sterol methyl transferase( SMT) enzyme in Prototheca wickerhamii
[1] = Compound was tested for inactivation of sterol methyl transferase (SMT) enzyme in Prototheca wickerhamii

K inact (Prototheca wickerhamii): 0.3 min⁻¹
Ki [1]: 30 µM
Compound: C=C/C(C)=C/CC[C@@H](C)C1CC[C@@]2(C)C3CCC4C(C)(C)C(O)CCC45CC35CCC12C (some centres not stated)

— ChEMBL document CHEMBL1131517, “4,4,14 alpha-trimethyl 9 beta,19-cyclo-5 alpha-26-homocholesta-24,26-dien-3 beta-ol: a potent mechanism-based inactivator of delta 24(25)- to delta 25(27)-sterol methyl transferase” (Bioorg Med Chem Lett, 1998)
